In patent publication US9334290B2, “Substituted tetrahydrocarbazole and carbazole carboxamide compounds” (Bristol-Myers Squibb Company, priority 2013, dated 2016):
Where two headings read alike, the source gives them in different places.

How the values were obtained:
[1] = tested on: CD69 expression on B cells in human whole blood; test: Whole blood assay of BCR-stimulated CD69 expression on B cells; type: cell-based; settings: BCR-stimulated, read-out: CD69 IC50 values
human recombinant Btk = human recombinant Btk (Homo sapiens (Human), UniProt Q06187); test: Human Recombinant Btk enzyme assay; type: biochemical
Sequence of human recombinant Btk (Q06187 whole entry): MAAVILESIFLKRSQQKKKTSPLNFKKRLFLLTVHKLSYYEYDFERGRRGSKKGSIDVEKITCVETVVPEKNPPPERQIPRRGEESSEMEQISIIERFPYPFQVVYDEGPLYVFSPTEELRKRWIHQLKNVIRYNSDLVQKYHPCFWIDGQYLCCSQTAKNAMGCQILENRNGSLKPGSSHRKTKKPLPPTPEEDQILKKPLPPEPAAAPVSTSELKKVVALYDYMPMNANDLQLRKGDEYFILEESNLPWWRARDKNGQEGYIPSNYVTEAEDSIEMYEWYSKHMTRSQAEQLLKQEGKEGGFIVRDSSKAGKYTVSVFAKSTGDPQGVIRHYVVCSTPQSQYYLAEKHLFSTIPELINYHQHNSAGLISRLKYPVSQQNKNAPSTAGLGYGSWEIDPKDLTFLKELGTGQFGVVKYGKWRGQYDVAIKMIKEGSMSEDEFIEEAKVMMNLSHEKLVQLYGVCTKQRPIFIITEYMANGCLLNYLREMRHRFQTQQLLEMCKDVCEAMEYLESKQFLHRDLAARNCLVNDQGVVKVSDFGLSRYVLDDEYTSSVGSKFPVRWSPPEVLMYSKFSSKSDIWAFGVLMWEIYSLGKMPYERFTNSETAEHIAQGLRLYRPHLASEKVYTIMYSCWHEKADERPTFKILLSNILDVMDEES

Jak2 tyrosine kinase = Jak2 tyrosine kinase (Homo sapiens (Human), UniProt O60674); test: Jak2 tyrosine kinase assay; type: biochemical
Sequence of Jak2 tyrosine kinase (O60674 whole entry): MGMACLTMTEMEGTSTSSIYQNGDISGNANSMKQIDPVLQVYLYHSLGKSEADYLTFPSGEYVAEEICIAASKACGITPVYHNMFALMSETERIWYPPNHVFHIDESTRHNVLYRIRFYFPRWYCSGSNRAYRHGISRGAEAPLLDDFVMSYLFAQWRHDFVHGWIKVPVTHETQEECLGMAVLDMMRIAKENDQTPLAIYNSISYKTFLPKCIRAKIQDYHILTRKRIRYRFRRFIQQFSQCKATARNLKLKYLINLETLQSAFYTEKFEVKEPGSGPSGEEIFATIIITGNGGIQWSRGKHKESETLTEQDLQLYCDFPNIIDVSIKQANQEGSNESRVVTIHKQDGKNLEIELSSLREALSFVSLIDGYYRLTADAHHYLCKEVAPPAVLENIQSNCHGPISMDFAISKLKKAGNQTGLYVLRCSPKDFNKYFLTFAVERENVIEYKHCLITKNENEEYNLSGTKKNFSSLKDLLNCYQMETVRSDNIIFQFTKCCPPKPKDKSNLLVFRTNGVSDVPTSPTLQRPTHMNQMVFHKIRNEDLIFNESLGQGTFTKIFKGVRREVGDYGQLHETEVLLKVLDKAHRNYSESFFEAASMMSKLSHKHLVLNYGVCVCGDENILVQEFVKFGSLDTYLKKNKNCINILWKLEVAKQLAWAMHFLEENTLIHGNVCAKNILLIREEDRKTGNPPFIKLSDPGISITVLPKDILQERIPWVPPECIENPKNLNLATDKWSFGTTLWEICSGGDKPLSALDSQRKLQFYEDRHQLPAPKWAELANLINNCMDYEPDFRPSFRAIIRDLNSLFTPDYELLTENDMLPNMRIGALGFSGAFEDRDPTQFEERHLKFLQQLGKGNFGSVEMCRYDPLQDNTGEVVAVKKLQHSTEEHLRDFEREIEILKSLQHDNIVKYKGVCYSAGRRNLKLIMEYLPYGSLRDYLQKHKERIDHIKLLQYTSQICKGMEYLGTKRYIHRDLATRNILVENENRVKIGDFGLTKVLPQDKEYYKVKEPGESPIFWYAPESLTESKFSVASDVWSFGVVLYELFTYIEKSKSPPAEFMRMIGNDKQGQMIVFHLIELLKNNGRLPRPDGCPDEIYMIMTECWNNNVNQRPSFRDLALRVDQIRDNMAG

SMILES | IC50 [1] [nM] | IC50 (human recombinant Btk; read-out: Btk IC50 value) [nM] | IC50 (Jak2 tyrosine kinase) [nM] | Ratio of Jak2/Btk IC50 values (Jak2 tyrosine kinase; selectivity of Btk over Jak2) | IC50 ([1]; Homo sapiens, B-cell) [nM] | IC50 (human recombinant Btk; human recombinant Btk 1 nM, ATP 20 μM, read-out: Btk IC50) [nM] | Ratio of Jak2/Btk IC50 values (Jak2 tyrosine kinase; Jak2 IC50 divided by Btk IC50, larger value = more selective for Btk)
Cc1c(-c2c(Cl)cc(C(N)=O)c3[nH]c4cc(C(C)(C)O)ccc4c23)cccc1-n1c(=O)cc2c(F)cccn2c1=O (single isomer, unassigned) [Example 36] | 28 | 0.28 | 450 | 1600 |  |  | 
Cc1c(-c2c(Cl)cc(C(N)=O)c3[nH]c4cc(C(C)(C)O)ccc4c23)cccc1-n1c(=O)cc2sccn2c1=O (single isomer, unassigned) [Example 38] | 53 | 0.34 | 300 | 880 |  |  | 
Cc1c(-c2c(Cl)cc(C(N)=O)c3[nH]c4cc(C(C)(C)O)ccc4c23)cccc1-n1c(=O)cc2sccn2c1=O (single isomer, unassigned) [Example 39] | 130 | 0.31 | 370 | 1200 |  |  | 
COc1cccn2c(=O)n(-c3cccc(-c4c(Cl)cc(C(N)=O)c5[nH]c6cc(C(C)(C)O)ccc6c45)c3C)c(=O)cc12 [Example 37, 3-Chloro-7-(2-hydroxypropan-2-yl)-4-(3-(5-methoxy-1,3-dioxo-1H-pyrido[1,2-c]pyrimidin-2(3H)-yl)-2-methylphenyl)-9H-carbazole-1-carboxamide] |  | 0.91 | 630 | 690 |  |  | 
[2H]C([2H])([2H])n1c(=O)n(-c2cccc(-c3c(F)cc(C(N)=O)c4[nH]c5c(c34)CC[C@H](C(C)(C)O)C5)c2C)c(=O)c2cccc(F)c21 (single isomer, unassigned) [Example 62] |  | 0.41 | > 2000 | >4900 |  |  | 
COc1ccc2c(=O)n(-c3cccc(-c4c(Cl)cc(C(N)=O)c5[nH]c6cc(C(C)(C)O)ccc6c45)c3C)c(=O)n(C)c2c1 (single isomer, unassigned) [Example 5] |  | 2.1 | > 2000 | >950 | 170 |  | 
Cc1c(-c2c(Cl)cc(C(N)=O)c3[nH]c4cc(C(C)(C)O)ccc4c23)cccc1-n1c(=O)cc2c(F)cccn2c1=O (single isomer, unassigned) [Example 35] |  | 0.25 | 800 | 3200 | 31 |  | 
Cc1c(-c2c(F)cc(C(N)=O)c3[nH]c4cc(C(C)(C)O)ccc4c23)cccc1-n1c(=O)cc2c(F)cccn2c1=O (single isomer, unassigned) [Example 41] | 22 | 0.2 | 800 | 4000 |  |  | 
Cc1c(-c2c(C#N)cc(C(N)=O)c3[nH]c4cc(C(C)(C)O)ccc4c23)cccc1-n1c(=O)c2cccc(F)c2n(C)c1=O (single isomer, unassigned) [Example 15] |  | 1 | 2400 | 2400 | 170 |  | 
Cc1c(-c2c(Cl)cc(C(N)=O)c3[nH]c4cc(C(C)(C)O)ccc4c23)cccc1-n1c(=O)[nH]c2c(F)cccc2c1=O (single isomer, unassigned) [Example 14] |  | 1.2 |  |  | 20 |  | 
Cc1c(-c2c(Cl)cc(C(N)=O)c3[nH]c4cc(C(C)(C)O)ccc4c23)cccc1-n1c(=O)cc2c(F)cccn2c1=O [Example 34, 3-Chloro-4-(3-(5-fluoro-1,3-dioxo-1H-pyrido[1,2-c]pyrimidin-2(3H)-yl)-2-methylphenyl)-7-(2-hydroxypropan-2-yl)-9H-carbazole-1-carboxamide] |  | 0.85 | 370 | 440 | 98 |  | 
Cc1c(-c2c(F)cc(C(N)=O)c3[nH]c4cc(C(C)(C)O)ccc4c23)cccc1-n1c(=O)cc2c(F)cccn2c1=O (single isomer, unassigned) [Example 40] |  | 0.46 | 830 | 1800 | 19 |  | 
Cc1c(-c2c(F)cc(C(N)=O)c3[nH]c4c(c23)CC[C@H](C(C)(C)O)C4)cccc1-n1c(=O)c2cccc(F)c2n(C)c1=O (atropisomer, axis not shown) [Example 28, 6-Fluoro-5-(R)-(3-(S)-(8-fluoro-1-methyl-2,4-dioxo-1,2-dihydroquinazolin-3(4H)-yl)-2-methylphenyl)-2-(S)-(2-hydroxypropan-2-yl)-2,3,4,9-tetrahydro-1H-carbazole-8-carboxamide] |  | 0.54 | 32000 | 59000 |  |  | 
Cc1c(-c2c(Cl)cc(C(N)=O)c3[nH]c4cc(C(C)(C)O)ccc4c23)cccc1-n1c(=O)[nH]c2c(F)cccc2c1=O [Example 13, 3-Chloro-4-(3-(8-fluoro-2,4-dioxo-1,2-dihydroquinazolin-3(4H)-yl)-2-methylphenyl)-7-(2-hydroxypropan-2-yl)-9H-carbazole-1-carboxamide] |  | 2.9 |  |  | 140 |  | 
Cc1c(-c2c(C#N)cc(C(N)=O)c3[nH]c4cc(C(C)(C)O)ccc4c23)cccc1-n1c(=O)c2cccc(F)c2n(C)c1=O (single isomer, unassigned) [Example 16] | 120 | 0.27 | 1900 |  |  |  | 
Cc1c(-c2c(F)cc(C(N)=O)c3[nH]c4c(c23)CC[C@H](C(C)(C)O)C4)cccc1-n1c(=O)cc2c(F)cccn2c1=O (single isomer, unassigned) [Example 69] | 150 | 0.84 | 9500 | 11000 |  |  | 
Cc1c(-c2c(F)cc(C(N)=O)c3[nH]c4cc(C(C)(C)O)ccc4c23)cccc1-n1c(=O)cc2c(Cl)cccn2c1=O (single isomer, unassigned) [Example 31] | 37 | 0.19 |  |  |  |  | 
Cc1c(-c2c(F)cc(C(N)=O)c3[nH]c4cc(CCO)ccc4c23)cccc1-n1c(=O)cc2c(F)cccn2c1=O [Example 70] |  | 0.59 | 550 | 930 |  |  | 
Cc1c(-c2c(F)cc(C(N)=O)c3[nH]c4cc(C(C)(C)O)ccc4c23)cccc1-n1c(=O)cc2c(Cl)cccn2c1=O (single isomer, unassigned) [Example 30] |  | 0.22 |  |  | 64 |  | 
Cc1nc(C(N)=O)c2[nH]c3cc(C(C)(C)O)ccc3c2c1-c1cccc(-n2cnc3ccccc3c2=O)c1C [Comparative Example 76, 7-(2-Hydroxypropan-2-yl)-3-methyl-4-(2-methyl-3-(4-oxoquinazolin-3(4H)-yl)phenyl)-9H-pyrido[3,4-b]indole-1-carboxamide, reference compound] |  | 6.9 | 200 | 29 |  | 6.9 | 29
Cc1c(-c2c(Cl)cc(C(N)=O)c3[nH]c4c(c23)CC[C@H](C(C)(C)O)C4)cccc1-n1c(=O)[nH]c2c(F)cc(F)cc2c1=O (single isomer, unassigned) [Example 57] |  | 0.25 | 270 | 1100 |  |  | 
Cc1c(-c2c(F)cc(C(N)=O)c3[nH]c4c(c23)CC[C@H](C(C)(C)O)C4)cccc1-n1c(=O)cc2c(F)cccn2c1=O (single isomer, unassigned) [Example 68] |  | 0.56 | 350 | 630 |  |  | 
